Experimental data from patent publication US10246439B2, “Apoptosis signal-regulating kinase 1 inhibitors and methods of use thereof” (ENANTA PHARMACEUTICALS, INC., priority 2017, dated 2019).

Molecular target: T1, ASK1 (Homo sapiens, UniProt Q99683)
T1 construct: purchased Thermofisher PV4011
T1 sequence (Q99683 1-1374): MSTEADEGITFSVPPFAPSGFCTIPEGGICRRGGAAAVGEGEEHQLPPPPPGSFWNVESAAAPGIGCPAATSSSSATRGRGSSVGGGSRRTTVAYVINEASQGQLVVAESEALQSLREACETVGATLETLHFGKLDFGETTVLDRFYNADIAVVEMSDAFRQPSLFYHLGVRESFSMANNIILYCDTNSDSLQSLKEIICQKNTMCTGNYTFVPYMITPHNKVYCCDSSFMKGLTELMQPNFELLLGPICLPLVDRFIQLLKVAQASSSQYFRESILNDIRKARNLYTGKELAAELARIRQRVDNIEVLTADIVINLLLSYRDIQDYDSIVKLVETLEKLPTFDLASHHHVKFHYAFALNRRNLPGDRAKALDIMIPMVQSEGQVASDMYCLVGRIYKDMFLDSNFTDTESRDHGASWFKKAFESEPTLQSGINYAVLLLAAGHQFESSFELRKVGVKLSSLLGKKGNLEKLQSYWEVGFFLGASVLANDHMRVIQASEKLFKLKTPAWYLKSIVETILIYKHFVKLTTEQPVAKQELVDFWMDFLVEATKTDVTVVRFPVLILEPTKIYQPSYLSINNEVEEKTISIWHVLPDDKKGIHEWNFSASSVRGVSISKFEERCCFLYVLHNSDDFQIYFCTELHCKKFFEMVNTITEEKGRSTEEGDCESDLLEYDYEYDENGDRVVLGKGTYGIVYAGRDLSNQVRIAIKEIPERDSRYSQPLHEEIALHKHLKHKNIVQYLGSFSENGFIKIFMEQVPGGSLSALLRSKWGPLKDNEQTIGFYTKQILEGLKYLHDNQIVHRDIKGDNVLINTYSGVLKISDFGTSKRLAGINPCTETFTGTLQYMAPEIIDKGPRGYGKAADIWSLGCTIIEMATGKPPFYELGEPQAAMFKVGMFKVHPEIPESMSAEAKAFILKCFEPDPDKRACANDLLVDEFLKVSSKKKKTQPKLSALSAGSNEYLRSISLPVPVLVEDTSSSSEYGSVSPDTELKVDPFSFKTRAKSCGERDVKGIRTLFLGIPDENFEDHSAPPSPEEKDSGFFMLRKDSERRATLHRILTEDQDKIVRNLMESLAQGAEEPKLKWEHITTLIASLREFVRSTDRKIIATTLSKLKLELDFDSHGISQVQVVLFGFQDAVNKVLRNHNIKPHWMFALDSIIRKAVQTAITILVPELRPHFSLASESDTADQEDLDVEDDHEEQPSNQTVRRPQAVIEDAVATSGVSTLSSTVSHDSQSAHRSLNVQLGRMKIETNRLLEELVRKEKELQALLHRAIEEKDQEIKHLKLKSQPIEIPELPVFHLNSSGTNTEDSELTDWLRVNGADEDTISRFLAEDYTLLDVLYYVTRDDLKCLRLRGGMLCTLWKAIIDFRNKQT
Test: HTRF KinEASE-STK TR-FRET kinase assay, inhibition of ASK1
Assay type: biochemical
Details: 5 nM ASK1, 1 uM STK3 peptide substrate, 100 uM ATP
Procedure: ASK1 was purchased from Thermofisher (Catalogue # PV4011), ATP was purchased from Sigma (Catalogue # A7699), HTRF® KinEASE™ Assay System was obtained from Cisbio (Bedford, Mass.). ½ Area plate was purchased from Perkin Elmer (Catalogue # #6005560). HTRF® KinEASE™-STK is a generic method for measuring serine/threonine kinase activities using a time-resolved fluorescence resonance energy transfer (TR-FRET) immunoassay. The IC50 value for each compound was determined in the presence of compound (various concentration from 0 to 10 μM) and a fixed amount of ATP and peptide substrates. The test compound, 1 uM STK3 peptide substrate, and 5 nM of ASK1 kinase are incubated with kinase reaction buffer containing 50 mM HEPES pH 7.5, 0.01% BRIJ-35, 10 mM MgCl2, and 1 mM EGTA for 30 minutes. 100 uM ATP is added to start kinase reaction and incubated for 3 hours. The STK3-antibody labeled with Eu^3+-Cryptate and 125 nM streptavidin-XL665 are mixed in a single addition with stop reagents provided by the Cisbio kit used to stop the kinase reaction. Fluorescence is detected using an Envision Multilabeled 2014 reader from PerkinElmer. The Fluorescence is measured at 615 nm (Cryptate) and 665 nm (XL665) and a ratio of 665 nm/615 nm is calculated for each well. The resulting TR-FRET is proportional to the phosphorylation level. Staurosporine was used as the positive control. IC50 was determined by XLfit 5.3.

Row | IC50 [µM] | Structure (SMILES)
1 | 0.01 to 0.1 | CC(C)n1cnnc1-c1cccc(NC(=O)c2cc3sc(N4CCN(C(C)(C)C)CC4)nc3cn2)n1 [Example 74]
2 | > 1 | CCCCNc1nc2cc(F)c(C(=O)Nc3cccc(-c4nnnn4C(C)C)n3)cc2s1 [Example 40]
3 | 0.01 to 0.1 | CCN(CC)c1nc2ccc(C(=O)Nc3cccc(-c4nncn4C(C)C)n3)cc2s1 [Example 57]
4 | > 1 | CC(C)n1nnnc1-c1cccc(NC(=O)c2cc3sc(N4CCN(C5CC5)CC4)nc3cc2F)n1 [Example 42]
5 | > 1 | CC(C)n1cnnc1-c1cccc(NC(=O)c2ccc3nc(N4CCC(C)(C)CC4)sc3c2)n1 [Example 54]
6 | > 1 | CC(C)n1nnnc1-c1cccc(NC(=O)c2cc3sc(N4CCOCC4)nc3cn2)n1 [Example 72]
7 | > 1 | CC(C)n1nnnc1-c1cccc(NC(=O)c2cc3sc(N(C)C4CCCCC4)nc3cc2F)n1 [Example 44]
8 | 0.1 to 1 | CC(C)n1cnnc1-c1cccc(NC(=O)c2ccc3nc(N4CCN(C5CC5)CC4)sc3c2)n1 [Example 55]
9 | > 1 | CC(C)n1nnnc1-c1cccc(NC(=O)c2cc3sc(C4CCC4)nc3cn2)n1 [Example 69]
10 | 0.001 to 0.01 | CC(C)n1cnnc1-c1cccc(NC(=O)c2cc3sc(N4CCOCC4)nc3cn2)n1 [Example 65]
11 | 0.01 to 0.1 | CC(C)n1cnnc1-c1cccc(NC(=O)c2ccc3nc(N4C5CCCC4CC5)sc3c2)n1 [Example 51]
12 | 0.01 to 0.1 | CC(C)N(c1nc2ccc(C(=O)Nc3cccc(-c4nncn4C(C)C)n3)cc2s1)C(C)C [Example 53, 2-(diisopropylamino)-N-(6-(4-isopropyl-4H-1,2,4-triazol-3-yl)pyridin-2-yl)benzo[d]thiazole-6-carboxamide]
13 | 0.1 to 1 | CC(C)Nc1nc2ccc(C(=O)Nc3cccc(-c4nncn4C(C)C)n3)cc2s1 [Example 56]
14 | 0.01 to 0.1 | CC(C)n1cnnc1-c1cccc(NC(=O)c2cc3sc(C4CCC4)nc3cn2)n1 [Example 67]
15 | 0.01 to 0.1 | CC(C)n1cnnc1-c1cccc(NC(=O)c2ccc3nc(N4CCN(C(C)(C)C)CC4)sc3c2)n1 [Example 59]
16 | > 1 | CC(C)n1nnnc1-c1cccc(NC(=O)c2cc3sc(N(C)CC4CC4)nc3cc2F)n1 [Example 39]
17 | > 1 | CC(C)n1nnnc1-c1cccc(NC(=O)c2cc3sc(N4CCCCC4)nc3cn2)n1 [Example 62]
18 | > 1 | CC(C)n1nnnc1-c1cccc(NC(=O)c2cc3sc(N4CCC(C(C)(C)C)CC4)nc3cn2)n1 [Example 68]
19 | > 1 | CC(C)n1nnnc1-c1cccc(NC(=O)c2cc3sc(N4CCC(C(C)(C)C)CC4)nc3cc2F)n1 [Example 41]
20 | 0.001 to 0.01 | CC(C)n1cnnc1-c1cccc(NC(=O)c2cc3sc(N4CCCC4)nc3cc2F)n1 [Example 50]
21 | > 1 | CC(C)n1cnnc1-c1cccc(NC(=O)c2ccc3nc(-c4ccc(C(C)(C)C)cc4)sc3c2)n1 [Example 58, 2-(4-(tert-butyl)phenyl)-N-(6-(4-isopropyl-4H-1,2,4-triazol-3-yl)pyridin-2-yl)benzo[d]thiazole-6-carboxamide]
22 | > 1 | CC(C)n1nnnc1-c1cccc(NC(=O)c2cc3sc(C4CC4)nc3cn2)n1 [Example 70]
23 | > 1 | CC(C)n1nnnc1-c1cccc(NC(=O)c2cc3sc(N4CCC4)nc3cc2F)n1 [Example 45]
24 | 0.01 to 0.1 | CC(C)n1cnnc1-c1cccc(NC(=O)c2cc3sc(C4CC4)nc3cn2)n1 [Example 63, 2-cyclopropyl-N-(6-(4-isopropyl-4H-1,2,4-triazol-3-yl)pyridin-2-yl)thiazolo[4,5-c]pyridine-6-carboxamide]
25 | 0.01 to 0.1 | CC(C)n1nnnc1-c1cccc(NC(=O)c2cc3sc(N(C)C)nc3cn2)n1 [Example 75]
26 | 0.01 to 0.1 | CC(C)n1cnnc1-c1cccc(NC(=O)c2cc3sc(N(C)C)nc3cn2)n1 [Example 64]
27 | 0.001 to 0.01 | CNc1nc2cc(F)c(C(=O)Nc3cccc(-c4nncn4C(C)C)n3)cc2s1 [Example 49, 5-fluoro-N-(6-(4-isopropyl-4H-1,2,4-triazol-3-yl)pyridin-2-yl)-2-(methylamino)benzo[d]thiazole-6-carboxamide]

The remaining lines, values behind:

Row | Structure (SMILES) | IC50 [µM]
28 | CC(C)n1cnnc1-c1cccc(NC(=O)c2cc3sc(N4CCC(C(C)(C)C)CC4)nc3cc2F)n1 [Example 29] | 0.01 to 0.1
29 | CC(C)n1nnnc1-c1cccc(NC(=O)c2cc3sc(NC4CC4)nc3cc2F)n1 [Example 38] | > 1
30 | CCCCN(C)c1nc2cc(F)c(C(=O)Nc3cccc(-c4nncn4C(C)C)n3)cc2s1 [Example 9] | 0.001 to 0.01
31 | CC(C)n1cnnc1-c1cccc(NC(=O)c2ccc3ncsc3c2)n1 [Example 2, N-(6-(4-isopropyl-4H-1,2,4-triazol-3-yl)pyridin-2-yl)benzo[d]thiazole-6-carboxamide] | 0.1 to 1
32 | CC(C)n1cnnc1-c1cccc(NC(=O)c2ccc3nc(-c4ccccc4)sc3c2)n1 [Example 22] | 0.1 to 1
33 | CC(C)n1cnnc1-c1cccc(NC(=O)c2ccc3nc(N4CCC(F)(F)CC4)sc3c2)n1 [Example 19] | 0.01 to 0.1
34 | CCN(CC)c1nc2cc(F)c(C(=O)Nc3cccc(-c4nnnn4C(C)C)n3)cc2s1 [Example 35] | > 1
35 | CC(C)n1cnnc1-c1cccc(NC(=O)c2ccc3nc(N4CCCC4)sc3c2)n1 [Example 20] | 0.1 to 1
36 | CC(C)n1cnnc1-c1cccc(NC(=O)c2cc3sc(N4CCC4)nc3cc2F)n1 [Example 28] | 0.001 to 0.01
37 | CC(C)n1cnnc1-c1cccc(NC(=O)c2ccc3ncn(C)c3c2)n1 [Example 1, N-(6-(4-isopropyl-4H-1,2,4-triazol-3-yl)pyridin-2-yl)-1-methyl-1H-benzo[d]imidazole-6-carboxamide] | 0.1 to 1
38 | CC(C)n1cnnc1-c1cccc(NC(=O)c2cc3sc(NC4CCCCC4)nc3cc2F)n1 [Example 26] | 0.001 to 0.01
39 | CC(C)n1cnnc1-c1cccc(NC(=O)c2ccc3nc(N4CCC(C(C)(C)C)CC4)sc3c2)n1 [Example 25] | 0.1 to 1
40 | CC(C)n1cnnc1-c1cccc(NC(=O)c2cc3sc(N4CCN(C(C)(C)C)CC4)nc3cc2F)n1 [Example 15] | 0.01 to 0.1
41 | CCN(CC)c1nc2cc(F)c(C(=O)Nc3cccc(-c4nncn4C(C)C)n3)cc2s1 [Example 13] | 0.001 to 0.01
42 | CC(C)n1nnnc1-c1cccc(NC(=O)c2cc3sc(NC4CCCCC4)nc3cc2F)n1 [Example 34] | > 1
43 | CC(C)n1cnnc1-c1cccc(NC(=O)c2cc3sc(N(C)C4CC4)nc3cc2F)n1 [Example 10] | 0.001 to 0.01
44 | CC(C)n1nnnc1-c1cccc(NC(=O)c2cc3sc(N4CCCCC4)nc3cc2F)n1 [Example 4] | > 1
45 | CC(C)n1cnnc1-c1cccc(NC(=O)c2ccc3nc(N4CC5CCC(C4)O5)sc3c2)n1 [Example 17] | 0.01 to 0.1
46 | CC(C)n1cnnc1-c1cccc(NC(=O)c2cc3sc(N(C)CC4CC4)nc3cc2F)n1 [Example 11] | 0.001 to 0.01
47 | CC(C)n1nnnc1-c1cccc(NC(=O)c2cc3sc(C4CCC4)nc3cc2F)n1 [Example 36] | 0.1 to 1
48 | CC(C)n1cnnc1-c1cccc(NC(=O)c2ccc3nc(N(C)C)sc3c2)n1 [Example 23] | 0.01 to 0.1
49 | CC(C)n1cnnc1-c1cccc(NC(=O)c2cc3sc(N(C)C)nc3cc2F)n1 [Example 14] | 0.001 to 0.01
